According to ChEMBL document CHEMBL5608186, “Design, synthesis and structure-activity relationships of novel non-ketolides: 9-Oxime clarithromycin featured with seven-to thirteen-atom-length diamine linkers at 3-OH” (Eur J Med Chem, 2024):
Converted amounts (≈) assume the structure as drawn.

Columns and labels:
[1] = Metabolic stability in rat liver microsomes assessed as unchanged drug at 1 uM incubated upto 60 mins in presence of NADPH by LC-MS/MS analysis; format: ADME, Microsome; conditions: read-out: Stability
[2] = Metabolic stability in human liver microsomes assessed as unchanged drug at 1 uM incubated upto 60 mins in presence of NADPH by LC-MS/MS analysis; format: ADME, Microsome; conditions: read-out: Stability
[3] = Metabolic stability in human liver microsomes assessed as half life at 1 uM incubated upto 60 mins in presence of NADPH by LC-MS/MS analysis; format: ADME, Microsome
[4] = Metabolic stability in human liver microsomes assessed as intrinsic clearance in liver at 1 uM incubated upto 60 mins in presence of NADPH by LC-MS/MS analysis; format: ADME, Microsome; conditions: read-out: CLH
Streptococcus pneumoniae [5] = assay: Bactericidal activity against Streptococcus pneumoniae ATCC 49619 incubated for 16 to 20 hrs by CLSI based broth microdilution method; format: functional; conditions: time 16-20 hrs
Staphylococcus aureus [6] = assay: Antibacterial activity against methicillin-resistant Staphylococcus aureus PU 32 harboring i-ermA gene incubated for 16 to 20 hrs by CLSI based broth microdilution method; format: functional; conditions: time 16-20 hrs
Streptococcus pyogenes [7] = assay: Bactericidal activity against Streptococcus pyogenes 01-968 harboring i-ermB gene incubated for 16 to 20 hrs by CLSI based broth microdilution method; format: functional; conditions: time 16-20 hrs
Staphylococcus aureus [8] = assay: Antibacterial activity against methicillin-resistant Staphylococcus aureus PU 20 harboring c-ermA gene incubated for 16 to 20 hrs by CLSI based broth microdilution method; format: functional; conditions: time 16-20 hrs
Streptococcus pneumoniae [9] = assay: Bactericidal activity against Streptococcus pneumoniae 07P390 harboring c-erm gene incubated for 16 to 20 hrs by CLSI based broth microdilution method; format: functional; conditions: time 16-20 hrs
Streptococcus pneumoniae [10] = assay: Antibacterial activity against Streptococcus pneumoniae ATCC 49619 incubated for 16 to 20 hrs by CLSI based broth microdilution method; format: functional; conditions: time 16-20 hrs
Staphylococcus aureus [11] = assay: Bactericidal activity against methicillin-resistant Staphylococcus aureus PU 32 harboring i-ermA gene incubated for 16 to 20 hrs by CLSI based broth microdilution method; format: functional; conditions: time 16-20 hrs
Streptococcus pyogenes [12] = assay: Antibacterial activity against Streptococcus pyogenes 01-968 harboring i-ermB gene incubated for 16 to 20 hrs by CLSI based broth microdilution method; format: functional; conditions: time 16-20 hrs
Haemophilus influenzae [13] = assay: Bactericidal activity against Haemophilus influenzae ATCC 49247 incubated for 16 to 20 hrs by CLSI based broth microdilution method; format: functional; conditions: time 16-20 hrs
Streptococcus pneumoniae [14] = assay: Selectivity ratio of MBC for Streptococcus pneumoniae 07P390 harboring c-erm gene to MIC for Streptococcus pneumoniae 07P390 harboring c-erm gene; format: functional
Haemophilus influenzae [15] = assay: Selectivity ratio of MBC for Haemophilus influenzae ATCC 49247 to MIC for Haemophilus influenzae ATCC 49247; format: functional
Streptococcus pneumoniae [16] = assay: Selectivity ratio of MBC for Streptococcus pneumoniae ATCC 49619 to MIC for Streptococcus pneumoniae ATCC 49619; format: functional
Haemophilus influenzae [17] = assay: Antibacterial activity against Haemophilus influenzae ATCC 49247 incubated for 16 to 20 hrs by CLSI based broth microdilution method; format: functional; conditions: time 16-20 hrs
Streptococcus pneumoniae [18] = assay: Antibacterial activity against Streptococcus pneumoniae PU 09 harboring mef gene incubated for 16 to 20 hrs by CLSI based broth microdilution method; format: functional; conditions: time 16-20 hrs
Streptococcus pyogenes [19] = assay: Selectivity ratio of MBC for Streptococcus pyogenes 01-968 harboring i-ermB gene to MIC for Streptococcus pyogenes 01-968 harboring i-ermB gene; format: functional
Streptococcus pneumoniae [20] = assay: Selectivity ratio of MBC for Streptococcus pneumoniae PU 09 harboring mef gene to MIC for Streptococcus pneumoniae PU 09 harboring mef gene; format: functional
Staphylococcus aureus [21] = assay: Selectivity ratio of MBC for methicillin-resistant Staphylococcus aureus PU 20 harboring c-ermA gene to MIC for methicillin-resistant Staphylococcus aureus PU 20 harboring c-ermA gene; format: functional
Staphylococcus aureus [22] = assay: Selectivity ratio of MBC for methicillin-resistant Staphylococcus aureus PU 32 harboring i-ermA gene to MIC for methicillin-resistant Staphylococcus aureus PU 32 harboring i-ermA gene; format: functional
Streptococcus pneumoniae [23] = assay: Bactericidal activity against Streptococcus pneumoniae PU 09 harboring mef gene incubated for 16 to 20 hrs by CLSI based broth microdilution method; format: functional; conditions: time 16-20 hrs
Streptococcus pneumoniae [24] = assay: Antibacterial activity against Streptococcus pneumoniae 07P390 harboring c-erm gene incubated for 16 to 20 hrs by CLSI based broth microdilution method; format: functional; conditions: time 16-20 hrs
Staphylococcus aureus [25] = assay: Bactericidal activity against methicillin-resistant Staphylococcus aureus PU 20 harboring c-ermA gene incubated for 16 to 20 hrs by CLSI based broth microdilution method; format: functional; conditions: time 16-20 hrs

SMILES	MBC (Streptococcus pneumoniae [5]) [µg/mL]	MIC (Staphylococcus aureus [6]) [µg/mL]	MBC (Streptococcus pyogenes [7]) [µg/mL]	MIC (Staphylococcus aureus [8]) [µg/mL]	MBC (Streptococcus pneumoniae [9]) [µg/mL]	MIC (Streptococcus pneumoniae [10]) [µg/mL]	MBC (Staphylococcus aureus [11]) [µg/mL]	MIC (Streptococcus pyogenes [12]) [µg/mL]	MBC (Haemophilus influenzae [13]) [µg/mL]	Selectivity ratio (Streptococcus pneumoniae [14])	Selectivity ratio (Haemophilus influenzae [15])	Selectivity ratio (Streptococcus pneumoniae [16])	MIC (Haemophilus influenzae [17]) [µg/mL]	MIC (Streptococcus pneumoniae [18]) [µg/mL]	Selectivity ratio (Streptococcus pyogenes [19])	Selectivity ratio (Streptococcus pneumoniae [20])	Selectivity ratio (Staphylococcus aureus [22])	MBC (Streptococcus pneumoniae [23]) [µg/mL]	MIC (Streptococcus pneumoniae [24]) [µg/mL]	MBC (Staphylococcus aureus [25]) [µg/mL]	also measured
CCOc1ccc2ccc(=O)oc2c1																					remaining at 1 h, 1 µM [1]: 1%; remaining at 1 h, 1 µM [2]: 14.1%; half-life at 1 µM [3]: 21.2 min; CLint scaled at 1 µM [4]: 58.7 mL/min/kg
CC[C@H]1OC(=O)[C@H](C)[C@@H](OC(=O)CCN2CCN(c3cc4c(cc3F)c(=O)c(C(=O)O)cn4C3CC3)CC2)[C@H](C)[C@@H](O[C@@H]2O[C@H](C)C[C@H](N(C)C)[C@H]2O)[C@](C)(OC)C[C@@H](C)/C(=N\OCCCc2cncc(C(=O)NC)c2)[C@H](C)[C@H]2OC(=O)O[C@@]21C	0.03 (≈ 0.0252 µM)	64 (≈ 53.7 µM)	> 32	64 (≈ 53.7 µM)	16 (≈ 13.4 µM)	0.016 (≈ 0.0134 µM)	> 256	4 (≈ 3.35 µM)	2 (≈ 1.68 µM)	8	1	2	2 (≈ 1.68 µM)	0.03 (≈ 0.0252 µM)	>8	4	>4	0.12 (≈ 0.101 µM)	2 (≈ 1.68 µM)	> 256	Selectivity ratio (Staphylococcus aureus [21]): >4
CC[C@H]1OC(=O)[C@H](C)[C@@H](OC(=O)Cc2ccccn2)[C@H](C)[C@@H](O[C@@H]2O[C@H](C)C[C@H](N(C)C)[C@H]2O)[C@](C)(OC(=O)CCN2CCN(c3c(F)cc4c(=O)c(C(=O)O)cn(C5CC5)c4c3OC)CC2C)C[C@@H](C)CN(C)[C@H](C)[C@@H](O)[C@]1(C)O (stereo not given in full)	1 (≈ 0.878 µM)	128 (≈ 112 µM)	> 64	8 (≈ 7.02 µM)	8 (≈ 7.02 µM)	0.5 (≈ 0.439 µM)	> 256	8 (≈ 7.02 µM)	0.5 (≈ 0.439 µM)	1	1	2	0.5 (≈ 0.439 µM)	2 (≈ 1.76 µM)	>8	4		8 (≈ 7.02 µM)	8 (≈ 7.02 µM)	8 (≈ 7.02 µM)	Selectivity ratio (Staphylococcus aureus [21]): 1
CC[C@H]1OC(=O)[C@H](C)[C@@H](OC(=O)CCN2CCN(c3cc4c(cc3F)c(=O)c(C(=O)O)cn4C3CC3)CC2)[C@H](C)[C@@H](O[C@@H]2O[C@H](C)C[C@H](N(C)C)[C@H]2O)[C@](C)(OC)C[C@@H](C)/C(=N\OCC#Cc2cncc(C(=O)NC)c2)[C@H](C)[C@H]2OC(=O)O[C@@]21C	0.25 (≈ 0.21 µM)	64 (≈ 53.9 µM)	> 128	> 256	32 (≈ 26.9 µM)	0.03 (≈ 0.0252 µM)	> 256	16 (≈ 13.5 µM)	4 (≈ 3.37 µM)	8	1	8	4 (≈ 3.37 µM)	0.12 (≈ 0.101 µM)	>8	4	>4	0.5 (≈ 0.421 µM)	4 (≈ 3.37 µM)	> 256	
CC[C@H]1OC(=O)[C@H](C)[C@@H](OC(=O)CCN2CCN(c3cc4c(cc3F)c(=O)c(C(=O)O)cn4C3CC3)CC2)[C@H](C)[C@@H](O[C@@H]2O[C@H](C)C[C@H](N(C)C)[C@H]2O)[C@](C)(OC)C[C@@H](C)/C(=N\OC/C=C/c2cncc(C(=O)NC)c2)[C@H](C)[C@H]2OC(=O)O[C@@]21C	0.06 (≈ 0.0504 µM)	64 (≈ 53.8 µM)	> 64	> 256	> 16	0.03 (≈ 0.0252 µM)	> 256	8 (≈ 6.72 µM)	4 (≈ 3.36 µM)	>8	1	2	4 (≈ 3.36 µM)	0.12 (≈ 0.101 µM)	>8	4	>4	0.5 (≈ 0.42 µM)	2 (≈ 1.68 µM)	> 256	
CC[C@H]1OC(=O)[C@H](C)[C@@H](OC(=O)CCNCCCCNc2cc3c(cc2F)c(=O)c(C(=O)O)cn3C2CC2)[C@H](C)[C@@H](O[C@@H]2O[C@H](C)C[C@H](N(C)C)[C@H]2O)[C@](C)(OC)C[C@@H](C)/C(=N\OC)[C@H](C)[C@H]2OC(=O)O[C@@]21C	0.125 (≈ 0.121 µM)	4 (≈ 3.88 µM)	0.016 (≈ 0.0155 µM)	128 (≈ 124 µM)	16 (≈ 15.5 µM)	0.062 (≈ 0.0601 µM)	8 (≈ 7.75 µM)	≤ 0.008	32 (≈ 31 µM)	2	2	2	16 (≈ 15.5 µM)	0.5 (≈ 0.484 µM)	2	1	2	0.5 (≈ 0.484 µM)	8 (≈ 7.75 µM)	> 256	
CC[C@H]1OC(=O)[C@H](C)[C@@H](OC(=O)CCNCCCCCCNc2cc3c(cc2F)c(=O)c(C(=O)O)cn3C2CC2)[C@H](C)[C@@H](O[C@@H]2O[C@H](C)C[C@H](N(C)C)[C@H]2O)[C@](C)(OC)C[C@@H](C)/C(=N\OC)[C@H](C)[C@H]2OC(=O)O[C@@]21C	0.062 (≈ 0.0585 µM)	4 (≈ 3.77 µM)	> 0.062	128 (≈ 121 µM)	4 (≈ 3.77 µM)	0.062 (≈ 0.0585 µM)	16 (≈ 15.1 µM)	≤ 0.008	256 (≈ 241 µM)	4	1	1	256 (≈ 241 µM)	0.5 (≈ 0.472 µM)	>8	2	4	1 (≈ 0.943 µM)	1 (≈ 0.943 µM)	> 256	
CC[C@H]1OC(=O)[C@H](C)[C@@H](OC(=O)CCN2CCN(c3c(F)cc4c(=O)c(C(=O)O)cn(C5CC5)c4c3OC)CC2C)[C@H](C)[C@@H](O[C@@H]2O[C@H](C)C[C@H](N(C)C)[C@H]2O)[C@](C)(OC)C[C@@H](C)/C(=N\OCC#Cc2cncc(C(=O)NC)c2)[C@H](C)[C@H]2OC(=O)O[C@@]21C (stereo not given in full)	1 (≈ 0.811 µM)	> 256	> 128	32 (≈ 26 µM)	> 128	0.5 (≈ 0.406 µM)	> 256	16 (≈ 13 µM)	2 (≈ 1.62 µM)	>8	1	2	2 (≈ 1.62 µM)	1 (≈ 0.811 µM)	>8	4		4 (≈ 3.25 µM)	16 (≈ 13 µM)	32 (≈ 26 µM)	Selectivity ratio (Staphylococcus aureus [21]): 1
CC[C@H]1OC(=O)[C@H](C)[C@@H](OC(=O)CCNCCCNc2cc3c(=O)c(C(=O)O)cn(C4CC4)c3cc2Cl)[C@H](C)[C@@H](O[C@@H]2O[C@H](C)C[C@H](N(C)C)[C@H]2O)[C@](C)(OC)C[C@@H](C)/C(=N\OC)[C@H](C)[C@H]2OC(=O)O[C@@]21C	0.5 (≈ 0.483 µM)	32 (≈ 30.9 µM)	16 (≈ 15.5 µM)	128 (≈ 124 µM)	16 (≈ 15.5 µM)	0.25 (≈ 0.242 µM)	> 256	4 (≈ 3.87 µM)	256 (≈ 247 µM)	2	1	2	256 (≈ 247 µM)	2 (≈ 1.93 µM)	4	1	>8	2 (≈ 1.93 µM)	8 (≈ 7.73 µM)	256 (≈ 247 µM)	Selectivity ratio (Staphylococcus aureus [21]): 2
CC[C@H]1OC(=O)[C@H](C)[C@@H](OC(=O)CCNCCCCCNc2cc3c(cc2F)c(=O)c(C(=O)O)cn3C2CC2)[C@H](C)[C@@H](O[C@@H]2O[C@H](C)C[C@H](N(C)C)[C@H]2O)[C@](C)(OC)C[C@@H](C)/C(=N\OC)[C@H](C)[C@H]2OC(=O)O[C@@]21C	0.125 (≈ 0.119 µM)	1 (≈ 0.956 µM)	> 0.062	128 (≈ 122 µM)	2 (≈ 1.91 µM)	0.062 (≈ 0.0593 µM)	8 (≈ 7.65 µM)	≤ 0.008	256 (≈ 245 µM)	2	1	2	256 (≈ 245 µM)	0.5 (≈ 0.478 µM)	>8	2	8	1 (≈ 0.956 µM)	1 (≈ 0.956 µM)	> 256	remaining at 1 h, 1 µM [1]: 98.4%; remaining at 1 h, 1 µM [2]: 42%; half-life at 1 µM [3]: 57.3 min; CLint scaled at 1 µM [4]: 21.8 mL/min/kg
